# Laboratory results published in patent US20170202835A1, “OSMOLYTE-CONTAINING PREPARATION FOR THE TREATMENT OF DRY MUCOUS MEMBRANES” (Bitop AG, priority 2007, published 2017).
# “Also recorded” adds a separate entry of the source.
# Tested on: TR146 cells
# Assay: Mucus production in TR146 cells (PAS staining, image analysis)
# Type: cell-based, human
# Conditions: 0.5% FCS, 16 h incubation
# Description: To evaluate possible effects of compatible solutes on mucus production an in vitro cell culture model was used. For this purpose a mucus producing cell line, TR146, served as a model for the situation in the human mouth. The cells were incubated with ectoine and other substances. After treatment the cells were stained with PAS (Periodic Acid-Schiff) to determine the mucus content.
# TR146 cells were seeded and grown on glass plates in 96 wells until they reached nearly confluence. The glass plates were coated with Poly-L-Lysine to ensure a good attachment of the cells. After reaching confluence the cells were set to 0.5% FCS (Fetal Calf Serum) and were incubated with ectoine, glucosylglycerole and prostaglandine for 16 h, whereas the control sample was not treated further. Prostaglandine is known in the literature to stimulate mucus production (Tani et al., Biol Pharm Bull 25 (1), 2002, 14-18).
# After the incubation time, cells were stained with a PAS staining kit from Sigma Aldrich to stain the whole mucus on top of the cells. For analysis pictures were taken with the Dino Eye Capture Camera. The pictures were afterwards analyzed with Image J software.
# These areas were marked with the Image software Image J and the pixel area was determined. The average results were given as percentage relative to the control (=100%) (FIG. 2).
row,Structure (SMILES),Mucus production (PAS-stained pixel area relative to control = 100%)
1,"CC1=NC(C(=O)O)CCN1 (stereo not drawn) [Ectoine, 1,4,5,6-tetrahydro-2-methyl-pyrimidine-4-carboxylic acid]","showed a tendency to stimulate the mucus production; also recorded: did so, too, although to a lesser extent"
2,"CCCCC[C@H](O)/C=C/[C@H]1[C@H](O)CC(=O)[C@@H]1C/C=C\CCCC(=O)O [Prostaglandin E2, reference compound]",showed an induction of mucus production
3,OCC(CO)O[C@H]1O[C@H](CO)[C@@H](O)[C@H](O)[C@H]1O [glucosylglycerol],"showed a tendency to stimulate the mucus production; also recorded: did so, too, although to a lesser extent"
